Assays:
[1] = Blood insulin response (insulinemic index, II) after consumption, randomized cross over analysis; type: in vivo, human; conditions: ten healthy subjects, 25 g carbohydrate and 250 ml water, 0 to 180 minutes
Procedure: (§1) The effect of trehalulose on the blood glucose response (glycemic index, GI) and the insulin response (insulinemic index, II) was examined in comparison to isomaltulose. The analysis was done as a randomized cross over analysis on ten healthy subjects of both sex. Blood glucose- and insulin-profiles were taken after consumption of isomaltulose or trehalulose (each 25 g carbohydrate and 250 ml water) for an interval of 0 to 180 minutes at the following time points 0, 15, 30, 45, 60, 90, 120, 150 and 180 minutes.

[2] = Blood glucose response (glycemic index, GI) after consumption, randomized cross over analysis; type: in vivo, human; conditions: ten healthy subjects, 25 g carbohydrate and 250 ml water, 0 to 180 minutes, compared to isomaltulose
Procedure: as §1

[3] = Stability of trehalulose during preparation (cooking) of jellies; type: physicochemical; conditions: when cooking the jellies
Procedure: In the following, four recipes for jellies using as sweeteners a mixture of sucrose and glucose and four recipes using the trehalulose-containing composition, that means vitalose, of the present invention are prepared. The jellies prepared were tested comparatively in storage and TPA-analysis.
In all of the jelly recipes the conventional sweetener combination of sucrose and glucose could be successfully replaced by the trehalulose-containing composition, that means vitalose, of the present invention. The preparation using the trehalulose-containing composition, that means vitalose, was exactly as for the sucrose/glucose compositions.

Structure (SMILES) | insulin response (II), blood insulin level [1] | blood glucose response (GI), blood glucose level [2] | degradation during preparation [3]
O=C(CO)[C@@H](O)[C@H](O)[C@H](O)CO[C@H]1O[C@H](CO)[C@@H](O)[C@H](O)[C@H]1O [isomaltulose, 6-O-α-D-glucopyranosyl-D-fructose, reference compound] | in parallel to the blood glucose response | – | –
O=C(CO[C@H]1O[C@H](CO)[C@@H](O)[C@H](O)[C@H]1O)[C@@H](O)[C@H](O)[C@H](O)CO [trehalulose, 1-O-α-D-glucopyranosyl-D-fructose] | significantly lower insulin response (II) than isomaltulose | increased and longer sustaining supply of glucose | no degradation of trehalulose was observed

— US9707249B2, “Trehalulose-containing composition, its preparation and use” (SÜDZUCKER AKTIENGESELLSCHAFT MANNHEIM/OCHSENFURT, priority 2009, dated 2017)
